Measurements published in PubChem BioAssay AID651837 (Sanford-Burnham Center for Chemical Genomics, 2012).
pIC50: −log10 of the molar value. The source made the active and inactive calls.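 How the source made its calls: active means compounds whose fitted half-inhibition dose is 9.7 micromolar or lower; inactive means the rest.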

tested on: Sufu-KO-LIGHT mouse cells, Gli-luciferase reporter luminescence; test: antagonism of Gli-driven luciferase signal in Sufu-null cells – Sufu-KO-LIGHT mouse cells, luminescence, set 2, SAR follow-up (AID 651837)

SMILES	IC50	pIC50
O=C(Nc1cc(N2CCCCC2)ncn1)c1ccco1	> 9.7 µM (inactive)	–
CN1CCN(c2cc(NC(=O)c3ccccc3)ncn2)CC1	> 9.7 µM (inactive)	–
CCCCN(C)c1cc(NC(=O)c2ccccc2)ncn1	> 9.7 µM (inactive)	–
O=C(Nc1cc(N2CCCCC2)ncn1)c1ccc(C(F)(F)F)cc1	> 9.7 µM (inactive)	–
CC(C)(C)Nc1cc(NC(=O)c2ccccc2)ncn1	> 9.7 µM (inactive)	–
O=C(Nc1cc(N2CCOCC2)ncn1)c1ccccc1	> 9.7 µM (inactive)	–
O=C(Nc1cc(N2CCCCCC2)ncn1)c1ccccc1	–	7.46
COc1ccccc1C(=O)Nc1cc(N2CCCCC2)ncn1	> 9.7 µM (inactive)	–
CCOc1ccc(S(=O)(=O)NCc2ccncc2)cc1NC(=O)c1ccccc1	–	5.47
O=C(Nc1cc(N2CCCCC2)ncn1)c1ccccc1	–	7.64
N#Cc1cccc(C(=O)Nc2cc(N3CCCCC3)ncn2)c1	> 9.7 µM (inactive)	–
CC1CCCCN1c1cc(NC(=O)c2ccccc2)ncn1 (stereo not drawn)	> 9.7 µM (inactive)	–
COc1cccc(C(=O)Nc2cc(N3CCCCC3)ncn2)c1	> 9.7 µM (inactive)	–
CC(C)CNc1cc(NC(=O)c2ccccc2)ncn1	> 9.7 µM (inactive)	–
Cc1ccc(C(=O)Nc2cc(N3CCCCC3)ncn2)cc1	> 9.7 µM (inactive)	–
CCC(C)Nc1cc(NC(=O)c2ccccc2)ncn1 (stereo not drawn)	> 9.7 µM (inactive)	–
O=C(Nc1cc(NCC2CCCO2)ncn1)c1ccccc1 (stereo not drawn)	> 9.7 µM (inactive)	–
O=C(Nc1cc(N2CCSCC2)ncn1)c1ccccc1	> 9.7 µM (inactive)	–
O=C(Nc1cc(N2CCNCC2)ncn1)c1ccccc1	> 9.7 µM (inactive)	–
CC(C)Nc1cc(NC(=O)c2ccccc2)ncn1	> 9.7 µM (inactive)	–
N#Cc1ccc(C(=O)Nc2cc(N3CCCCC3)ncn2)cc1	> 9.7 µM (inactive)	–
O=C(Nc1cc(N2CCCCC2)ncn1)c1ccccc1C(F)(F)F	> 9.7 µM (inactive)	–
CCCCNc1cc(NC(=O)c2ccccc2)ncn1	> 9.7 µM (inactive)	–
O=C(Nc1cc(N2CCCCC2)ncn1)c1ccccc1Cl	> 9.7 µM (inactive)	–
O=C(Nc1cc(N2CCCCC2)ncn1)c1ccc(Cl)cc1	> 9.7 µM (inactive)	–
CC(C)(C)OC(=O)N1CCN(c2cc(NC(=O)c3ccccc3)ncn2)CC1	> 9.7 µM (inactive)	–
CCOc1ccc(-c2nc(CSCC(=O)NC3CC3)c(C)o2)cc1	–	7.57
CC1CCN(c2cc(NC(=O)c3ccccc3)ncn2)CC1	–	7.62
